# Measurements: ChEMBL document CHEMBL2439971, “Design, synthesis and antiproliferative evaluation of fluorenone analogs with DNA topoisomerase I inhibitory properties” (Bioorg Med Chem, 2013)
# pIC50: −log10 of the molar value. Activity calls are given as the source filed them. The calls are words filed in the database; no cut-off is given here.
# Key:
# [1] = test system: PC-3; test: Cytotoxicity against human PC3 cells after 48 hrs by sulforhodamine B assay; format: functional, cell-based; conditions: PC-3, 48 h
# [2] = organism: Homo sapiens; test: Inhibition of telomerase (unknown origin) at 10 uM TRAP assay
# [3] = test system: ACHN; test: Cytotoxicity against human ACHN cells at 10 uM after 48 hrs by sulforhodamine B assay relative to control; format: functional
# [4] = test system: PC-3; test: Cytotoxicity against human PC3 cells at 10 uM after 48 hrs by sulforhodamine B assay relative to control; format: functional
# [5] = test system: SNB-75; test: Cytotoxicity against human SNB75 cells at 10 uM after 48 hrs by sulforhodamine B assay relative to control; format: functional
# [6] = Cytotoxicity against human EKVX cells at 10 uM after 48 hrs by sulforhodamine B assay relative to control; format: functional
# [7] = test system: SK-MEL-2; test: Cytotoxicity against human SK-MEL-2 cells at 10 uM after 48 hrs by sulforhodamine B assay relative to control; format: functional
# [8] = test system: UACC-62; test: Cytotoxicity against human UACC62 cells at 10 uM after 48 hrs by sulforhodamine B assay relative to control; format: functional
# [9] = test system: SF-539; test: Cytotoxicity against human SF539 cells at 10 uM after 48 hrs by sulforhodamine B assay relative to control; format: functional
# [10] = test system: NCI/ADR-RES; test: Cytotoxicity against human NCI/ADR-RES cells at 10 uM after 48 hrs by sulforhodamine B assay relative to control; format: functional
# [11] = test system: SF-268; test: Cytotoxicity against human SF268 cells at 10 uM after 48 hrs by sulforhodamine B assay relative to control; format: functional
# [12] = test system: SK-MEL-28; test: Cytotoxicity against human SK-MEL-28 cells at 10 uM after 48 hrs by sulforhodamine B assay relative to control; format: functional
# [13] = test system: HCC 2998; test: Cytotoxicity against human HCC2998 cells at 10 uM after 48 hrs by sulforhodamine B assay relative to control; format: functional
# [14] = test system: DU-145; test: Cytotoxicity against human DU145 cells at 10 uM after 48 hrs by sulforhodamine B assay relative to control; format: functional
# [15] = test system: TK-10; test: Cytotoxicity against human TK10 cells at 10 uM after 48 hrs by sulforhodamine B assay relative to control; format: functional
# [16] = test system: HCT-15; test: Cytotoxicity against human HCT15 cells at 10 uM after 48 hrs by sulforhodamine B assay relative to control; format: functional
# [17] = test system: UO-31; test: Cytotoxicity against human UO31 cells at 10 uM after 48 hrs by sulforhodamine B assay relative to control; format: functional
# [18] = test system: T47D; test: Cytotoxicity against human T47D cells at 10 uM after 48 hrs by sulforhodamine B assay relative to control; format: functional
# [19] = test system: HT-29; test: Cytotoxicity against human HT-29 cells at 10 uM after 48 hrs by sulforhodamine B assay relative to control; format: functional
# [20] = test system: COLO 205; test: Cytotoxicity against human COLO205 cells at 10 uM after 48 hrs by sulforhodamine B assay relative to control; format: functional
# [21] = test system: LOX IMVI; test: Cytotoxicity against human LOXIMVI cells at 10 uM after 48 hrs by sulforhodamine B assay relative to control; format: functional
# [22] = test system: SK-MEL-5; test: Cytotoxicity against human SK-MEL-5 cells at 10 uM after 48 hrs by sulforhodamine B assay relative to control; format: functional
# [23] = test system: K562; test: Cytotoxicity against human K562 cells at 10 uM after 48 hrs by sulforhodamine B assay relative to control; format: functional
# [24] = test system: U-251; test: Cytotoxicity against human U251 cells at 10 uM after 48 hrs by sulforhodamine B assay relative to control; format: functional
# [25] = test system: CCRF-CEM; test: Cytotoxicity against human CCRF-CEM cells at 10 uM after 48 hrs by sulforhodamine B assay relative to control; format: functional
# [26] = test system: NCI-H226; test: Cytotoxicity against human NCI-H226 cells at 10 uM after 48 hrs by sulforhodamine B assay relative to control; format: functional
# [27] = test system: IGROV-1; test: Cytotoxicity against human IGROV1 cells at 10 uM after 48 hrs by sulforhodamine B assay relative to control; format: functional
# [28] = test system: Malme-3M; test: Cytotoxicity against human MALME-3M cells at 10 uM after 48 hrs by sulforhodamine B assay relative to control; format: functional
# [29] = test system: BT-549; test: Cytotoxicity against human BT549 cells at 10 uM after 48 hrs by sulforhodamine B assay relative to control; format: functional
# [30] = test system: MDA-MB-468; test: Cytotoxicity against human MDA-MB-468 cells at 10 uM after 48 hrs by sulforhodamine B assay relative to control; format: functional
# [31] = test system: NCI-H522; test: Cytotoxicity against human NCI-H522 cells at 10 uM after 48 hrs by sulforhodamine B assay relative to control; format: functional
# [32] = test system: A549; test: Cytotoxicity against human A549 cells at 10 uM after 48 hrs by sulforhodamine B assay relative to control; format: functional
# [33] = test system: MOLT-4; test: Cytotoxicity against human MOLT4 cells at 10 uM after 48 hrs by sulforhodamine B assay relative to control; format: functional
# [34] = test system: M14; test: Cytotoxicity against human M14 cells at 10 uM after 48 hrs by sulforhodamine B assay relative to control; format: functional
# [35] = test system: 786-0; test: Cytotoxicity against human 786-0 cells at 10 uM after 48 hrs by sulforhodamine B assay relative to control; format: functional
# [36] = test system: OVCAR-4; test: Cytotoxicity against human OVCAR4 cells at 10 uM after 48 hrs by sulforhodamine B assay relative to control; format: functional
# [37] = test system: KM12; test: Cytotoxicity against human KM12 cells at 10 uM after 48 hrs by sulforhodamine B assay relative to control; format: functional
# [38] = test system: SR; test: Cytotoxicity against human SR cells at 10 uM after 48 hrs by sulforhodamine B assay relative to control; format: functional
# [39] = test system: SN12C; test: Cytotoxicity against human SN12C cells at 10 uM after 48 hrs by sulforhodamine B assay relative to control; format: functional
# [40] = test system: RPMI-8226; test: Cytotoxicity against human RPMI8226 cells at 10 uM after 48 hrs by sulforhodamine B assay relative to control; format: functional
# [41] = test system: SW-620; test: Cytotoxicity against human SW620 cells at 10 uM after 48 hrs by sulforhodamine B assay relative to control; format: functional
# [42] = test system: OVCAR-3; test: Cytotoxicity against human OVCAR3 cells at 10 uM after 48 hrs by sulforhodamine B assay relative to control; format: functional
# [43] = test system: NCI-H23; test: Cytotoxicity against human NCI-H23 cells at 10 uM after 48 hrs by sulforhodamine B assay relative to control; format: functional
# [44] = test system: NCI-H460; test: Cytotoxicity against human NCI-H460 cells at 10 uM after 48 hrs by sulforhodamine B assay relative to control; format: functional
# [45] = test system: HL-60(TB); test: Cytotoxicity against human HL-60(TB) cells at 10 uM after 48 hrs by sulforhodamine B assay relative to control; format: functional
# [46] = test system: HOP-62; test: Cytotoxicity against human HOP62 cells at 10 uM after 48 hrs by sulforhodamine B assay relative to control; format: functional
# [47] = test system: RXF 393; test: Cytotoxicity against human RXF393 cells at 10 uM after 48 hrs by sulforhodamine B assay relative to control; format: functional
# [48] = test system: MDA-MB-231; test: Cytotoxicity against human MDA-MB-231 cells at 10 uM after 48 hrs by sulforhodamine B assay relative to control; format: functional
# [49] = test system: OVCAR-5; test: Cytotoxicity against human OVCAR5 cells at 10 uM after 48 hrs by sulforhodamine B assay relative to control; format: functional
# [50] = test system: OVCAR-8; test: Cytotoxicity against human OVCAR8 cells at 10 uM after 48 hrs by sulforhodamine B assay relative to control; format: functional
# [51] = Cytotoxicity against human Hs 578T cells at 10 uM after 48 hrs by sulforhodamine B assay relative to control; format: functional
# [52] = test system: SNB-19; test: Cytotoxicity against human SNB19 cells at 10 uM after 48 hrs by sulforhodamine B assay relative to control; format: functional
# [53] = test system: HCT-116; test: Cytotoxicity against human HCT116 cells at 10 uM after 48 hrs by sulforhodamine B assay relative to control; format: functional
# [54] = test system: UACC-257; test: Cytotoxicity against human UACC257 cells at 10 uM after 48 hrs by sulforhodamine B assay relative to control; format: functional
# [55] = test system: MCF7; test: Cytotoxicity against human MCF7 cells at 10 uM after 48 hrs by sulforhodamine B assay relative to control; format: functional
smiles,measurement,setting,value
CC(C)NCCC(=O)Nc1ccc2c(c1)C(=O)c1cc(NC(=O)CCNC(C)C)ccc1-2,pIC50,[1],5.00
same,inhibition,[2],inactive
O=C(CCCl)Nc1ccc2c(c1)C(=O)c1cc(NC(=O)CCCl)ccc1-2,pIC50,[1],< 4.52
same,inhibition,[2],inactive
O=C(CCN1CCCCC1)Nc1ccc2c(c1)C(=O)c1cc(NC(=O)CCN3CCCCC3)ccc1-2,pIC50,[1],5.20
same,inhibition,[2],inactive
O=C(CCl)Nc1ccc2c(c1)C(=O)c1cc(NC(=O)CCl)ccc1-2,pIC50,[1],6.26
same,inhibition,[2],inactive
CCSCC(=O)Nc1ccc2c(c1)C(=O)c1cc(NC(=O)CSCC)ccc1-2,pIC50,[1],< 4.52
same,inhibition,[2],inactive
CN1CCN(CCC(=O)Nc2ccc3c(c2)C(=O)c2cc(NC(=O)CCN4CCN(C)CC4)ccc2-3)CC1,Activity,[3],100.97%
same,Activity,[4],104.35%
same,Activity,[5],77.89%
same,Activity,[6],111.18%
same,Activity,[7],109.38%
same,Activity,[8],104.21%
same,Activity,[9],111.08%
same,Activity,[10],103.89%
same,Activity,[11],109.98%
same,Activity,[12],96.67%
same,Activity,[13],99.57%
same,Activity,[14],112.6%
same,Activity,[15],99.67%
same,pIC50,[1],< 4.52
same,Activity,[16],101.35%
same,Activity,[17],89.26%
same,Activity,[18],102.07%
same,Activity,[19],101.23%
same,Activity,[20],108.32%
same,Activity,[21],96.43%
same,Activity,[22],107.35%
same,Activity,[23],99.19%
same,Activity,[24],100.29%
same,Activity,[25],97.76%
same,Activity,[26],98.16%
same,Activity,[27],102.45%
same,Activity,[28],98.05%
same,Activity,[29],107.82%
same,Activity,[30],88.91%
same,Activity,[31],86.63%
same,Activity,[32],106.9%
same,Activity,[33],94.59%
same,Activity,[34],105.74%
same,Activity,[35],100.57%
same,Activity,[36],99.91%
same,Activity,[37],111.12%
same,Activity,[38],92.06%
same,Activity,[39],102.94%
same,Activity,[40],106.48%
same,Activity,[41],105.36%
same,Activity,[42],116.35%
same,Activity,[43],96.83%
same,Activity,[44],107.13%
same,Activity,[45],103.58%
same,Activity,[46],109.22%
same,Activity,[47],97.03%
same,Activity,[48],115.67%
same,Activity,[49],104.62%
same,Activity,[50],101.48%
same,inhibition,[2],inactive
same,Activity,[51],102.5%
same,Activity,[52],105.99%
same,Activity,[53],100.16%
same,Activity,[54],103.02%
same,Activity,[55],95.72%
O=C(CN1CCCCC1)Nc1ccc2c(c1)C(=O)c1cc(NC(=O)CN3CCCCC3)ccc1-2,pIC50,[1],< 4.52
same,inhibition,[2],inactive
CC(C)SCCC(=O)Nc1ccc2c(c1)C(=O)c1cc(NC(=O)CCSC(C)C)ccc1-2,pIC50,[1],< 4.52
same,inhibition,[2],inactive
O=C(CCN1CCCC1)Nc1ccc2c(c1)C(=O)c1cc(NC(=O)CCN3CCCC3)ccc1-2,pIC50,[1],5.22
same,inhibition,[2],inactive
O=C(CSCCO)Nc1ccc2c(c1)C(=O)c1cc(NC(=O)CSCCO)ccc1-2,pIC50,[1],< 4.52
same,inhibition,[2],inactive
O=C1c2cc([N+](=O)[O-])ccc2-c2ccc([N+](=O)[O-])cc21,pIC50,[1],< 4.52
same,inhibition,[2],inactive
CCCNCCC(=O)Nc1ccc2c(c1)C(=O)c1cc(NC(=O)CCNCCC)ccc1-2,pIC50,[1],4.68
same,inhibition,[2],inactive
CC(C)NCC(=O)Nc1ccc2c(c1)C(=O)c1cc(NC(=O)CNC(C)C)ccc1-2,pIC50,[1],5.21
same,inhibition,[2],inactive
CC(C)SCC(=O)Nc1ccc2c(c1)C(=O)c1cc(NC(=O)CSC(C)C)ccc1-2,pIC50,[1],< 4.52
same,inhibition,[2],inactive
O=C(CCNCCO)Nc1ccc2c(c1)C(=O)c1cc(NC(=O)CCNCCO)ccc1-2,pIC50,[1],4.72
same,inhibition,[2],inactive
O=C(CN1CCOCC1)Nc1ccc2c(c1)C(=O)c1cc(NC(=O)CN3CCOCC3)ccc1-2,pIC50,[1],< 4.52
same,inhibition,[2],inactive
O=C(CNCCO)Nc1ccc2c(c1)C(=O)c1cc(NC(=O)CNCCO)ccc1-2,pIC50,[1],< 4.52
same,inhibition,[2],inactive
CCCSCCC(=O)Nc1ccc2c(c1)C(=O)c1cc(NC(=O)CCSCCC)ccc1-2,pIC50,[1],< 4.52
same,inhibition,[2],inactive
Nc1ccc2c(c1)C(=O)c1cc(N)ccc1-2,pIC50,[1],< 4.52
same,inhibition,[2],inactive
CC(C)CNCC(=O)Nc1ccc2c(c1)C(=O)c1cc(NC(=O)CNCC(C)C)ccc1-2,pIC50,[1],< 4.52
same,inhibition,[2],inactive
CCCCNCCC(=O)Nc1ccc2c(c1)C(=O)c1cc(NC(=O)CCNCCCC)ccc1-2,pIC50,[1],4.57
same,inhibition,[2],inactive
